According to PubChem BioAssay AID248 (DTP/NCI, 2004):
Inconclusive results and toxic doses are left out.

Tested on: L1210 leukemia ip in BDF1 mice, survival T/C
Assay: NCI In Vivo Anticancer Drug Screen. Data for tumor model L1210 Leukemia (intraperitoneal) in B6D2F1 (BDF1) mice
Settings: endpoint: mean survival time, higher = longer survival
How it was run: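 Tumor was transplanted into mice, which were then dosed with test compound or vehicle alone. Survival was recorded for each group, and the treated figure was expressed relative to the control figure.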

[1] = dose: 100.0 mg/kg/injection, schedule: Q01DX009 (ip), vehicle: Klucel (hydroxypropylcellulose) (HPC)
[2] = dose: 200.0 mg/kg/injection, schedule: Q01DX009 (ip), vehicle: Klucel (hydroxypropylcellulose) (HPC)

Cc1ccc(NC(=O)COc2ccc(Cl)cc2)c(C)c1
T/C (dose: 100.0 mg/kg/injection, schedule: Q01DX001 (ip), vehicle: Klucel (hydroxypropylcellulose) (HPC)): 99 % of control
T/C [1]: 100 % of control
T/C (dose: 100.0 mg/kg/injection, schedule: Q04DX003 (ip), vehicle: Klucel (hydroxypropylcellulose) (HPC)): 96 % of control
T/C (dose: 200.0 mg/kg/injection, schedule: Q01DX001 (ip), vehicle: Klucel (hydroxypropylcellulose) (HPC)): 99 % of control
T/C [2]: 102 % of control
T/C (dose: 200.0 mg/kg/injection, schedule: Q04DX003 (ip), vehicle: Klucel (hydroxypropylcellulose) (HPC)): 96 % of control
T/C (dose: 400.0 mg/kg/injection, schedule: Q01DX001 (ip), vehicle: Klucel (hydroxypropylcellulose) (HPC)): 99 % of control
T/C (dose: 400.0 mg/kg/injection, schedule: Q04DX003 (ip), vehicle: Klucel (hydroxypropylcellulose) (HPC)): 98 % of control

O=C(Cc1ccccc1)O/C=C1/CCOC1=O
T/C (dose: 100.0 mg/kg/injection, schedule: Q04DX002 (ip), vehicle: Klucel (hydroxypropylcellulose) (HPC)): 91 % of control
T/C (dose: 200.0 mg/kg/injection, schedule: Q04DX002 (ip), vehicle: Klucel (hydroxypropylcellulose) (HPC)): 91 % of control
T/C (dose: 400.0 mg/kg/injection, schedule: Q04DX002 (ip), vehicle: Klucel (hydroxypropylcellulose) (HPC)): 94 % of control

CN1CCCC1=Nc1ccc([N+](=O)[O-])cc1
T/C [1]: 104 % of control
T/C [2]: 108 % of control
T/C (dose: 400.0 mg/kg/injection, schedule: Q01DX009 (ip), vehicle: Klucel (hydroxypropylcellulose) (HPC)): 102 % of control

O=C(Nc1cccc(C(=O)Nc2ccc(C3=NCCN3)cc2)c1)c1ccc(C2=NCCN2)cc1
T/C (dose: 15.0 mg/kg/injection, schedule: Q01DX Z (ip), vehicle: carboxymethylcellulose (CMC)): 96 % of control
T/C (dose: 15.0 mg/kg/injection, schedule: Q01DX Z (sc), vehicle: saline): 120 % of control
T/C (dose: 30.0 mg/kg/injection, schedule: Q01DX Z (ip), vehicle: carboxymethylcellulose (CMC)): 120 % of control
T/C (dose: 60.0 mg/kg/injection, schedule: Q01DX Z (sc), vehicle: saline): 109 % of control
T/C (dose: 62.5 mg/kg/injection, schedule: Q01DX010 (oral), vehicle: saline): 104 % of control
T/C (dose: 88.0 mg/kg/injection, schedule: Q01DX007 (oral), vehicle: carboxymethylcellulose (CMC)): 101 % of control
T/C (dose: 120.0 mg/kg/injection, schedule: Q01DX Z (ip), vehicle: carboxymethylcellulose (CMC)): 185 % of control
T/C (dose: 120.0 mg/kg/injection, schedule: Q01DX Z (sc), vehicle: saline): 230 % of control
T/C (dose: 125.0 mg/kg/injection, schedule: Q01DX010 (oral), vehicle: saline): 104 % of control
T/C (dose: 175.0 mg/kg/injection, schedule: Q01DX007 (oral), vehicle: carboxymethylcellulose (CMC)): 97 % of control
T/C (dose: 250.0 mg/kg/injection, schedule: Q01DX010 (oral), vehicle: saline): 103 % of control
T/C (dose: 350.0 mg/kg/injection, schedule: Q01DX007 (oral), vehicle: carboxymethylcellulose (CMC)): 105 % of control
T/C (dose: 500.0 mg/kg/injection, schedule: Q01DX010 (oral), vehicle: saline): 106 % of control
T/C (dose: 700.0 mg/kg/injection, schedule: Q01DX007 (oral), vehicle: carboxymethylcellulose (CMC)): 105 % of control

Nc1ccc(S(=O)(=O)NS(=O)(=O)c2ccccc2)cc1
T/C (dose: 100.0 mg/kg/injection, schedule: Q01DX001 (ip), vehicle: saline): 95 % of control
T/C (dose: 200.0 mg/kg/injection, schedule: Q01DX001 (ip), vehicle: saline): 93 % of control
T/C (dose: 400.0 mg/kg/injection, schedule: Q01DX001 (ip), vehicle: saline): 101 % of control

O=S(=O)(O)C(O)c1ccc(Cl)cc1Cl (centres undefined)
T/C (dose: 100.0 mg/kg/injection, schedule: Q04DX003 (ip), vehicle: saline): 102 % of control
T/C (dose: 200.0 mg/kg/injection, schedule: Q04DX003 (ip), vehicle: saline): 102 % of control
T/C (dose: 400.0 mg/kg/injection, schedule: Q04DX003 (ip), vehicle: saline): 107 % of control

CCC(CC)OCCN1CCN(CCCN2c3ccccc3Sc3ccc(C(F)(F)F)cc32)CC1
T/C (dose: 0.39 mg/kg/injection, schedule: Q01DX009 (ip), vehicle: saline with Tween-80): 107 % of control
T/C (dose: 0.78 mg/kg/injection, schedule: Q01DX009 (ip), vehicle: saline with Tween-80): 107 % of control
T/C (dose: 1.56 mg/kg/injection, schedule: Q01DX009 (ip), vehicle: saline with Tween-80): 95 % of control
T/C (dose: 1.56 mg/kg/injection, schedule: Q04DX003 (ip), vehicle: saline with Tween-80): 97 % of control
T/C (dose: 3.12 mg/kg/injection, schedule: Q04DX003 (ip), vehicle: saline with Tween-80): 96 % of control
T/C (dose: 6.25 mg/kg/injection, schedule: Q04DX003 (ip), vehicle: saline with Tween-80): 112 % of control
T/C (dose: 12.5 mg/kg/injection, schedule: Q04DX003 (ip), vehicle: saline with Tween-80): 97 % of control

CNC(=S)N/N=C/CSC/C=N/NC(=S)NC
T/C (dose: 0.2 mg/kg/injection, schedule: Q03HX024 (ip), vehicle: saline with Tween-80): 100 % of control
T/C (dose: 0.39 mg/kg/injection, schedule: Q03HX024 (ip), vehicle: saline with Tween-80): 97 % of control
T/C (dose: 0.78 mg/kg/injection, schedule: Q03HX024 (ip), vehicle: saline with Tween-80): 93 % of control
T/C (dose: 1.56 mg/kg/injection, schedule: Q03HX024 (ip), vehicle: saline with Tween-80): 108 % of control
T/C (dose: 3.13 mg/kg/injection, schedule: Q03HX024 (ip), vehicle: saline with Tween-80): 100 % of control

COC(=O)c1cc(C)cc(N(c2ccccc2[N+](=O)[O-])S(=O)(=O)c2ccc(C)cc2)c1C
T/C (dose: 100.0 mg/kg/injection, schedule: Q01DX001 (ip), vehicle: carboxymethylcellulose (CMC)): 96 % of control
T/C (dose: 200.0 mg/kg/injection, schedule: Q01DX001 (ip), vehicle: carboxymethylcellulose (CMC)): 104 % of control
T/C (dose: 400.0 mg/kg/injection, schedule: Q01DX001 (ip), vehicle: carboxymethylcellulose (CMC)): 98 % of control
